Experimental findings from PubChem BioAssay AID330 (DTP/NCI, 2004) are described below.

Where “and” joins values, the source holds several entries; their conditions need not be identical. Identical values can stand only once. Inconclusive results and toxic doses are left out.

For this assay, the system named is P388 leukemia ip, CD2F1 mice, survival T/C. In words: NCI In Vivo Anticancer Drug Screen. Data for tumor model P388 Leukemia (intraperitoneal) in CD2F1 (CDF1) mice. Conditions: endpoint: median survival time, higher = longer survival. In short, it runs like this: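 Mice carrying the transplanted tumor received test compound or vehicle. Survival was recorded in each group, and the value is the treated-group measurement divided by that of the vehicle-treated control group.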

The mark [1] stands for this setting: dose: 50.0 mg/kg/injection, schedule: Q01DX005 (ip), vehicle: Klucel (hydroxypropylcellulose) (HPC).
[2] abbreviates: dose: 100.0 mg/kg/injection, schedule: Q01DX005 (ip), vehicle: Klucel (hydroxypropylcellulose) (HPC).
[3] abbreviates: dose: 60.0 mg/kg/injection, schedule: Q01DX005 (ip), vehicle: Klucel (hydroxypropylcellulose) (HPC).
Where [4] appears, read: dose: 50.0 mg/kg/injection, schedule: Q01DX009 (ip), vehicle: Klucel (hydroxypropylcellulose) (HPC).

With `CC1=NN(C(C)(C)C)[Si]2(C(C)(C)C)C1[Si]1(C(C)(C)C)C2C(C)=NN1C(C)(C)C` (stereo not drawn), the T/C (dose: 25.0 mg/kg/injection, schedule: Q01DX005 (ip), vehicle: Klucel (hydroxypropylcellulose) (HPC)) was 92 % of control; the T/C under setting [1] was 86 % of control; the T/C under setting [2] was 90 % of control; the T/C (dose: 200.0 mg/kg/injection, schedule: Q01DX005 (ip), vehicle: Klucel (hydroxypropylcellulose) (HPC)) is 90 % of control.

Consider `COc1cc2c(cc1OC)C13CC[N+]4(C)CC5=CCOC6CC(=O)N2C1C6C5CC34[O-]` (stereo not drawn), for which the T/C runs as follows: under setting [3], 99 % of control; (dose: 120.0 mg/kg/injection, schedule: Q01DX005 (ip), vehicle: Klucel (hydroxypropylcellulose) (HPC)) 99 % of control; (dose: 240.0 mg/kg/injection, schedule: Q01DX005 (ip), vehicle: Klucel (hydroxypropylcellulose) (HPC)) 111 % of control.

Regarding `Nc1cc2c(cc1C(=O)N1CCc3ccccc31)OCO2`, the T/C is, setting by setting: (dose: 25.0 mg/kg/injection, schedule: Q01DX009 (ip), vehicle: other) 106 % of control; (dose: 50.0 mg/kg/injection, schedule: Q01DX009 (ip), vehicle: other) 100 % of control; (dose: 100.0 mg/kg/injection, schedule: Q01DX009 (ip), vehicle: other) 97 % of control; (dose: 200.0 mg/kg/injection, schedule: Q01DX009 (ip), vehicle: other) 90 % of control.

Turning to `C=CC12CN(C)C3C4COC(CC41)C1(C(=O)Nc4ccccc41)C32` (stereo not drawn), the T/C reads like this: (dose: 1.25 mg/kg/injection, schedule: Q01DX009 (ip), vehicle: saline) 103 % of control; (dose: 2.5 mg/kg/injection, schedule: Q01DX009 (ip), vehicle: saline) 88 % of control; (dose: 5.0 mg/kg/injection, schedule: Q01DX009 (ip), vehicle: saline) 95 % of control; (dose: 7.5 mg/kg/injection, schedule: Q01DX005 (ip), vehicle: Klucel (hydroxypropylcellulose) (HPC)) 98 % of control; (dose: 10.0 mg/kg/injection, schedule: Q01DX009 (ip), vehicle: saline) 106 % of control; (dose: 15.0 mg/kg/injection, schedule: Q01DX005 (ip), vehicle: Klucel (hydroxypropylcellulose) (HPC)) 95 % of control. Besides, the T/C is 98 % of control (dose: 30.0 mg/kg/injection, schedule: Q01DX005 (ip), vehicle: Klucel (hydroxypropylcellulose) (HPC)) and 102 % of control under setting [3].

For the compound `COc1cccc2c1C(=O)c1c(O)c3c(c(O)c1C2=O)C[C@@](O)(C(=O)COS(=O)(=O)c1ccc(C)cc1)C[C@@H]3OC1CC(N)C(O)C(C)O1` (stereo partly drawn), the T/C reads like this: (dose: 0.78 mg/kg/injection, schedule: Q01DX009 (ip), vehicle: water) 164 % of control; (dose: 1.56 mg/kg/injection, schedule: Q01DX009 (ip), vehicle: water) 161 % of control; (dose: 3.13 mg/kg/injection, schedule: Q01DX009 (ip), vehicle: water) 158 % of control and 161 % of control; (dose: 6.25 mg/kg/injection, schedule: Q01DX009 (ip), vehicle: water) 155 % of control and 180 % of control; (dose: 12.5 mg/kg/injection, schedule: Q01DX009 (ip), vehicle: water) 89 % of control.

Turning to `O=C(NCCN1CCOCC1)c1cc2ccccc2oc1=O`, the T/C was 93 % of control (dose: 60.0 mg/kg/injection, schedule: Q01DX005 (ip), vehicle: saline with Tween-80); 91 % of control (dose: 120.0 mg/kg/injection, schedule: Q01DX005 (ip), vehicle: saline with Tween-80); 92 % of control (dose: 240.0 mg/kg/injection, schedule: Q01DX005 (ip), vehicle: saline with Tween-80).

For the compound `O=C(CCS(=O)(=O)CCC(=O)c1cccs1)c1cccs1`, the T/C is 90 % of control (dose: 100.0 mg/kg/injection, schedule: Q04DX003 (ip), vehicle: saline); 90 % of control (dose: 200.0 mg/kg/injection, schedule: Q04DX003 (ip), vehicle: saline); 90 % of control (dose: 400.0 mg/kg/injection, schedule: Q04DX003 (ip), vehicle: saline).

Take `CC1CC=CCC1C1NC(C(=O)O)CS1` (stereo not drawn): the T/C is 106 % of control (dose: 50.0 mg/kg/injection, schedule: Q01DX009 (ip), vehicle: suspension in saline); 107 % of control and 88 % of control (dose: 100.0 mg/kg/injection, schedule: Q01DX009 (ip), vehicle: suspension in saline); 98 % of control and 96 % of control (dose: 200.0 mg/kg/injection, schedule: Q01DX009 (ip), vehicle: suspension in saline).

As to `CS(=O)(=O)OCC#CCOS(C)(=O)=O`, the T/C was 109 % of control (dose: 1.56 mg/kg/injection, schedule: Q01DX009 (ip), vehicle: Klucel (hydroxypropylcellulose) (HPC)) and 120 % of control (dose: 3.12 mg/kg/injection, schedule: Q01DX009 (ip), vehicle: Klucel (hydroxypropylcellulose) (HPC)).

In the case of `CC(=O)c1c(C)nc2c(-c3ccccc3)[nH]c(C)c2c1C`, the T/C by setting is: (dose: 100.0 mg/kg/injection, schedule: Q04DX003 (ip), vehicle: Klucel (hydroxypropylcellulose) (HPC)) 100 % of control; (dose: 200.0 mg/kg/injection, schedule: Q04DX003 (ip), vehicle: Klucel (hydroxypropylcellulose) (HPC)) 102 % of control; (dose: 400.0 mg/kg/injection, schedule: Q04DX003 (ip), vehicle: Klucel (hydroxypropylcellulose) (HPC)) 111 % of control.

On to `COc1cc2c(cc1OC)-c1ccc(OC)c(=O)cc1CC(NC(=O)C(C)=O)C2` (stereo not drawn), for which the T/C by setting is: (dose: 0.63 mg/kg/injection, schedule: Q01DX009 (ip), vehicle: Klucel (hydroxypropylcellulose) (HPC)) 153 % of control; (dose: 1.25 mg/kg/injection, schedule: Q01DX009 (ip), vehicle: Klucel (hydroxypropylcellulose) (HPC)) 105 % of control; (dose: 78.0 micrograms/kg/injection, schedule: Q01DX009 (ip), vehicle: Klucel (hydroxypropylcellulose) (HPC)) 120 % of control; (dose: 625.0 micrograms/kg/injection, schedule: Q01DX009 (ip), vehicle: Klucel (hydroxypropylcellulose) (HPC)) 151 % of control.

In the case of `Cc1nc(Nc2ccc(F)cc2)c2c(-c3ccccc3)c[nH]c2n1`, the T/C is, setting by setting: under setting [1], 90 % of control; under setting [2], 88 % of control.

Turning to `C/C(=C\C=C1\N(C)c2ccccc2C1(C)C)N=C(C#N)C#N`, the T/C reads like this: (dose: 50.0 mg/kg/injection, schedule: Q04DX003 (ip), vehicle: saline with Tween-80) 93 % of control; (dose: 100.0 mg/kg/injection, schedule: Q04DX003 (ip), vehicle: saline with Tween-80) 91 % of control; (dose: 200.0 mg/kg/injection, schedule: Q04DX003 (ip), vehicle: saline with Tween-80) 96 % of control.

Take `CCCCCCCCCCCC(=O)C(=O)c1ccc(O)c(C)c1O`: the T/C under setting [4] was 107 % of control; the T/C (dose: 100.0 mg/kg/injection, schedule: Q01DX009 (ip), vehicle: Klucel (hydroxypropylcellulose) (HPC)) is 105 % of control; the T/C (dose: 200.0 mg/kg/injection, schedule: Q01DX009 (ip), vehicle: Klucel (hydroxypropylcellulose) (HPC)) is 110 % of control.

Consider `CCOC(=O)Cc1cc(O)c(C(=O)OCC)c(O)c1C(=O)OCC`, for which the T/C is, setting by setting: (dose: 100.0 mg/kg/injection, schedule: Q01DX001 (ip), vehicle: saline with Tween-80) 105 % of control; (dose: 200.0 mg/kg/injection, schedule: Q01DX001 (ip), vehicle: saline with Tween-80) 105 % of control; (dose: 400.0 mg/kg/injection, schedule: Q01DX001 (ip), vehicle: saline with Tween-80) 99 % of control.

For `Cc1cc(C)c(S(=O)(=O)O)c(C)c1Nc1ccc(Nc2c(C)cc(C)c(S(=O)(=O)O)c2C)c2c1C(=O)c1ccccc1C2=O`, the T/C (dose: 50.0 mg/kg/injection, schedule: Q01DX009 (ip), vehicle: saline with Tween-80) was 92 % of control and the T/C (dose: 100.0 mg/kg/injection, schedule: Q01DX009 (ip), vehicle: saline with Tween-80) is 91 % of control.

As to `Cc1c(CCl)cc([N+](=O)[O-])cc1CCl`, the T/C was 99 % of control (dose: 6.25 mg/kg/injection, schedule: Q01DX009 (ip), vehicle: Klucel (hydroxypropylcellulose) (HPC)); 112 % of control and 114 % of control (2×) (dose: 12.5 mg/kg/injection, schedule: Q01DX009 (ip), vehicle: Klucel (hydroxypropylcellulose) (HPC)); 116 % of control and 117 % of control and 120 % of control (dose: 25.0 mg/kg/injection, schedule: Q01DX009 (ip), vehicle: Klucel (hydroxypropylcellulose) (HPC)); 114 % of control and 117 % of control under setting [4].

As for `NC(CSC(c1ccccc1)(c1ccccc1)c1ccccc1)C(=O)NCC(=O)O` (stereo not drawn), where the note is “dose: 600.0 mg/kg/injection, schedule: Q01DX009 (ip), vehicle: saline with Tween-80”, the T/C is 122 % of control.

As for `CCCCCC/C=N/N1C(=O)C2C3C=CC(O3)C2C1=O` (stereo not drawn), the T/C is, setting by setting: (dose: 50.0 mg/kg/injection, schedule: Q01DX005 (ip), vehicle: saline with Tween-80) 103 % of control; (dose: 100.0 mg/kg/injection, schedule: Q01DX005 (ip), vehicle: saline with Tween-80) 108 % of control; (dose: 200.0 mg/kg/injection, schedule: Q01DX005 (ip), vehicle: saline with Tween-80) 95 % of control.
